This data set is described as follows: clinical. As to conditions: in vivo, iv. The text has this: The drug-drug interaction study was a phase 1, single-center, multiarm, open-label, randomized, three-period crossover study. The objective was to evaluate the DDI potential and the PK of SPR741 coadministered with each of three partner antibiotics as well as the DDI and PK effects of three partner antibiotics administered alone and with SPR741. The study comprised a screening phase (day −28 to day −2), three treatment arms (day 1 to day 8 for each arm), and an end-of-study follow-up (day 9). Each subject participated in screening, one treatment arm, and the end-of-study follow-up. The maximum duration of participation for each subject was approximately 37 days. Subjects remained in the clinical unit from the day before dosing (day −1) to 24 h after the third and last dose period (day 8).
The DDI study consisted of three treatment arms with three dosing periods in each arm (days 1, 4, and 7). In random sequence, subjects received a single dose of study treatments with a 2-day washout period between each assigned treatment. In treatment arm 1, subjects received 400 mg of SPR741 i.v. over 1 h, 400 mg of SPR741 i.v. over 1 h plus 1.0 g of ceftazidime i.v. over 1 h, and 1.0 g of ceftazidime i.v. over 1 h. In treatment arm 2, subjects received 400 mg of SPR741 i.v. over 1 h, 400 mg of SPR741 i.v. over 1 h plus 4.5 g of piperacillin-tazobactam i.v. over 1 h, and 4.5 g of piperacillin-tazobactam i.v. over 1 h.
For both studies, maximum plasma concentration (Cmax), area under the concentration-time curve from time zero to the last measurable time point (AUC0-t), area under the concentration-time curve from time zero to infinity (AUC0-inf), time to maximum concentration (Tmax), terminal elimination rate constant (kel), terminal half-life (t1/2), terminal clearance (CL), and volume of distribution (V) were determined. PK parameters were determined using WinNonlin Phoenix, version 6.4.
For the SAD phase, blood samples were obtained predose (within 10 min), at 30 min following the start of infusion, at the end of infusion, and at 75, 90, 105, 120, and 150 min and 3, 4, 5, 6, 8, 10, 12, and 24 h following the start of infusion. For the MAD phase, blood was obtained predose (within 10 min), at 30 min following the start of infusion, at the end of infusion, and at 90 and 150 min and 3, 4, 5, 6, and 8 h following the start of infusion (day 1, first dose; day 14, last dose). Five additional blood samples were obtained at 10, 12, 24, 36, and 48 h following the start of infusion of the last dose (morning of day 14). For the DDI study, blood samples for determining plasma concentrations of SPR741 and each partner antibiotic were obtained predose (within −10 min), at 30 min, and at 1 h, 1 h 15 min, 1 h 30 min, 1 h 45 min, 2, 4, 8, 12, and 24 h postdose for each dose period. Plasma samples for drug concentration measurements were analyzed using a validated high-pressure liquid chromatography tandem mass spectrometry (HPLC-MS/MS) method. In brief, samples were spiked with a stable isotope-labeled internal standard and then extracted by protein precipitation before injection onto the HPLC-MS/MS system. Unique transitions were monitored for all test articles and internal standards. Plasma concentrations below the limit of quantitation were reported as 0.
In the SAD/MAD study, geometric means were calculated for AUC and Cmax values. Analyses using linear models were performed to assess dose proportionality (both single dose and multiple dose), time dependence, accumulation, and attainment of steady state (multiple dose). Dose proportionality was assessed using linear models for the SAD and MAD cohorts separately. […] Point estimates and 90% confidence intervals (CIs), using the residual mean square error obtained from the ANOVA, were constructed for the comparisons between treatments. The point and CI estimates were back-transformed to give estimates of the ratios (percentages) of the geometric LSMs and corresponding 90% CIs.
`CC(C)(O/N=C(\C(=O)N[C@@H]1C(=O)N2C(C(=O)[O-])=C(C[n+]3ccccc3)CS[C@H]12)c1csc(N)n1)C(=O)O` [Ceftazidime, ceftazidime]: the “AUC0-inf, geometric LSM, reference treatment” value (“AUC0-inf, geometric LSM” for short) is given as 163,000 h·ng/ml; the AUC0-t is 162,000 ± 22,400 (13.8) ng·h/ml; the “AUC0-τ, geometric LSM, reference treatment” value (from here on “AUC0-τ, geometric LSM”) was 163,000 h·ng/ml; the AUC(0-inf) is listed as 163,000 ± 22,500 (13.8) ng·h/ml. Further, the CL was 6.3 ± 0.8 (12.8) liters/h; the Cmax was 70,200 ± 5,790 (8.2) ng/ml; the “Cmax, geometric LSM, reference treatment” value was 70,300 ng/ml; the Tmax is given as 1.0 ± 0 (0) h. For the same molecule, the V is 24.0 ± 3.1 (12.8) liters, the kel is 0.26 ± 0.01 (3.1) 1/h and the t1/2 was 2.7 ± 0.1 (3.1) h.
With `CCN1CCN(C(=O)N[C@@H](C(=O)N[C@@H]2C(=O)N3[C@@H]2SC(C)(C)[C@@H]3C(=O)O)c2ccccc2)C(=O)C1=O` [Piperacillin, piperacillin], the “AUC0-inf, geometric LSM” value is 228,000 h·ng/ml; the AUC0-t is recorded as 240,000 ± 33,000 (13.7) ng·h/ml; the “AUC0-τ, geometric LSM” value is given as 228,000 h·ng/ml; the AUC(0-inf) is 240,000 ± 33,000 (13.7) ng·h/ml. Besides, the CL is reported as 19.1 ± 3.0 (15.8) liters/h; the Cmax is reported as 154,000 ± 23,500 (15.2) ng/ml; the “Cmax, geometric LSM, reference treatment” value is on record as 145,000 ng/ml; the Tmax is recorded as 1.0 ± 0 (1.2) h. The V was 60.7 ± 10.6 (17.4) liters, the kel is listed as 0.32 ± 0.02 (5.6) 1/h and the t1/2 is listed as 2.2 ± 0.1 (5.7) h.
In the case of `C[C@]1(Cn2ccnn2)[C@H](C(=O)O)N2C(=O)C[C@H]2S1(=O)=O` [Tazobactam, tazobactam], the “AUC0-inf, geometric LSM” value is listed as 30,200 h·ng/ml; the AUC0-t is on record as 32,000 ± 5,060 (15.8) ng·h/ml; the “AUC0-τ, geometric LSM” value was 30,200 h·ng/ml; the AUC(0-inf) is reported as 32,000 ± 5,060 (15.8) ng·h/ml. The CL is 16.1 ± 3.0 (18.4) liters/h; the Cmax is on record as 18,500 ± 2,610 (14.1) ng/ml; the “Cmax, geometric LSM, reference treatment” value is given as 17,600 ng/ml; the Tmax is given as 1.0 ± 0 (1.2) h. The V is recorded as 41.6 ± 6.5 (15.6) liters, the kel is listed as 0.40 ± 0.12 (30.8) 1/h and the t1/2 is 1.9 ± 0.4 (22.4) h.
